For nine molecules, Activity results are on record in ChEMBL document CHEMBL4118214, “Structure activity relationships of anthranilic acid-based compounds on cellular and in vivo mitogen activated protein kinase-5 signaling pathways” (Bioorg Med Chem Lett, 2018).

For series [1], the system named is MDA-MB-231. Kind of series: Antitumor activity against human MDA-MB-231 cells xenografted in SCID/Beige mouse assessed as tumor volume at 25 mg/kg, qd measured on day 30 (reference value: 49.48 +/- 3.44 mm3). Type of series: functional. Background: A xenograft is tissue or cells of one species grown in another, often human tumour cells in immunodeficient mice.

Series [2] concerns the target T1, Dual specificity mitogen-activated protein kinase kinase 5 (Homo sapiens, UniProt Q13163).
T1 sequence (Q13163 whole entry): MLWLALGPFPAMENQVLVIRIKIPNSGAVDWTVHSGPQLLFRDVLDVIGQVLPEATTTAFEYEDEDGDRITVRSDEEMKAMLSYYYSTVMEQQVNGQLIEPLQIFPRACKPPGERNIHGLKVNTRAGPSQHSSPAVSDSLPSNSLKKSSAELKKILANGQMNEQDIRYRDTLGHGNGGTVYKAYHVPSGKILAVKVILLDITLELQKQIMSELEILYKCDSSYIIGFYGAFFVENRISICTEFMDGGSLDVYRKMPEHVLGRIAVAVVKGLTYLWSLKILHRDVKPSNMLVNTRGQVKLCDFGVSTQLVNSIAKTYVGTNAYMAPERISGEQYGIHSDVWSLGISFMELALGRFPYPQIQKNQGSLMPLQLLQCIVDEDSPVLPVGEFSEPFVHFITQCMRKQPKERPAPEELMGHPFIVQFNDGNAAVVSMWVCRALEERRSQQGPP
Kind of series: Activation of MEK5 in EGF-stimulated human MDA-MB-231 cells assessed as increase in pERK5 levels preincubated for 30 mins followed by EGF stimulation measured after 15 mins by Western blot analysis relative to control. It counts as cell-based. Further details: concentration or dose not given beside the values. Conditions: mda-mb-231, 0.25 h. On the technique in general: A western blot detects proteins with antibodies after separation by electrophoresis.

For series [3], the target named is Dual specificity mitogen-activated protein kinase kinase; MEK1/2 (Homo sapiens, UniProt P36507+Q02750). Kind of series: Activation of MEK1/2 in EGF-stimulated human MDA-MB-231 cells assessed as increase in pERK1/2 levels preincubated for 30 mins followed by EGF stimulation measured after 15 mins by Western blot analysis relative to control. Type of series: cell-based. The note with it: mda-mb-231, 0.25 h.

For `NC(=O)c1ccc(F)c(F)c1Nc1ccc(I)cc1F`, the Activity in series [1] turned out to be 29.1 mm3.
In the case of `O=C(c1ccc(F)c(F)c1Nc1ccc(I)cc1F)N1CCNCC1`, the Activity in series [2] was 20%.
Still for that read-out and setting: then `CN(c1ccc(I)cc1F)c1c(C(N)=O)ccc(F)c1F`, with 20%.
Still for that read-out and setting: with `CCN(CC)C(=O)c1ccc(F)c(F)c1Nc1ccc(I)cc1F` the figure was 20%; with `O=C(O)c1ccc(F)c(F)c1Nc1ccccc1F`, 20%.
For the molecule `CN1CCN(C(=O)c2ccc(F)c(F)c2N(C)c2ccc(I)cc2F)CC1`, the Activity in series [3] turned out to be 20%.
Same read-out and setting: with `NC(=O)c1ccccc1Nc1ccccc1F` the figure was 20%.
On the same count and under the same terms, then `CN1CCN(C(=O)c2ccc(F)c(F)c2Nc2ccccc2)CC1`, with 20%.
With `O=C(O)c1ccc(F)c(F)c1Nc1ccccc1`, the Activity in series [2] came to 20%.
